Source: BindingDB's records for doi:10.1016/j.bmc.2018.06.029 (East China University of Science & Technology, 2018)
pIC50: −log10 of the molar value.

Molecular target: Tyrosine-protein kinase SYK (Homo sapiens) (UniProt P43405)
Assay: Inhibition of SYK (unknown origin) using FAM-labeled peptide as substrate preincubated for 10 mins followed by substrate addition measured after 25 mins

Structure (SMILES)	pIC50
COCCCNc1nc(N2CCC(NC(=O)c3ccc(C(=O)O)cn3)C2)nc2c1COC2 (stereo unspecified)	< 4.30
CCc1ccc(Nc2nc(N3CCC(NC(=O)c4ccc(C(=O)O)cn4)C3)nc3c2COC3)cc1 (stereo unspecified)	4.72
COc1ccc(Nc2nc(N3CCC(NC(=O)c4ccc(C(=O)O)cn4)C3)nc3c2COC3)cc1OC (stereo unspecified)	4.63
O=C(O)c1ccc(C(=O)NC2CCN(c3nc4c(c(NC5CCCCC5)n3)COC4)C2)nc1 (stereo unspecified)	4.87
COC(=O)c1ccc(C(=O)NC2CCN(c3nc4c(c(Nc5ccc(OC)c(OC)c5)n3)CCC4)C2)cc1 (stereo unspecified)	< 4.30
CCCCCNc1nc(N2CCC(NC(=O)c3ccc(C(=O)O)cn3)C2)nc2c1COC2 (stereo unspecified)	< 4.30
O=C(O)c1ccc(C(=O)NC2CCN(c3nc4c(c(Nc5ccc6c(c5)OCCO6)n3)COC4)C2)nc1 (stereo unspecified)	4.69
Cc1ccc(Nc2nc(N3CCC(NC(=O)c4ccc(C(=O)O)cn4)C3)nc3c2COC3)cc1C (stereo unspecified)	4.81
COc1ccc(Nc2nc(N3CCC(NC(=O)c4ccc(C(=O)O)cc4)C3)nc3c2CCC3)cc1OC (stereo unspecified)	4.60
COc1cc(Nc2nc(N3CCC(NC(=O)c4ccc(C(=O)O)cn4)C3)nc3c2COC3)cc(OC)c1 (stereo unspecified)	4.68

The next lines start with the values.

pIC50	Structure (SMILES)
4.85	COc1cc(Nc2nc(N3CCC(NC(=O)c4ccc(C(=O)O)cn4)C3)nc3c2COC3)cc(OC)c1OC (stereo unspecified)
4.49	COc1ccc(Nc2nc(N3CCC(NC(=O)c4ccc(C(=O)O)cn4)C3)nc3c2COC3)cc1 (stereo unspecified)
< 4.30	CCOCCCNc1nc(N2CCC(NC(=O)c3ccc(C(=O)O)cn3)C2)nc2c1COC2 (stereo unspecified)
4.68	Cc1ccc(Nc2nc(N3CCC(NC(=O)c4ccc(C(=O)O)cn4)C3)nc3c2COC3)cc1 (stereo unspecified)
5.01	CCCCCCNc1nc(N2CCC(NC(=O)c3ccc(C(=O)O)cn3)C2)nc2c1COC2 (stereo unspecified)
4.94	CCCCCCCNc1nc(N2CCC(NC(=O)c3ccc(C(=O)O)cn3)C2)nc2c1COC2 (stereo unspecified)
